Where “and” joins values, the source holds several entries; their conditions need not be identical. Equal values may be shown once.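 Assay format: 96-well plates, 48-hour exposure. GI50 marks 50% less growth. TGI denotes the concentration required for complete inhibition of growth.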
Columns and labels:
Test in all cases: NCI-60 cell line screen, 48 h
HT29 colon = test system: HT29 colon
EKVX NSCLC = test system: EKVX NSCLC
TK-10 renal = test system: TK-10 renal
CAKI-1 renal = test system: CAKI-1 renal
HCT-116 colon = test system: HCT-116 colon
K-562 leukemia = test system: K-562 leukemia
SF-539 CNS = test system: SF-539 CNS
MDA-MB-435 = test system: MDA-MB-435
NCI-H522 lung = test system: NCI-H522 lung
MCF7 breast = test system: MCF7 breast

SMILES | GI50 (HT29 colon) [µM] | TGI (HT29 colon) [µM] | GI50 (EKVX NSCLC) [µM] | TGI (EKVX NSCLC) [µM] | GI50 (TK-10 renal) [µM] | TGI (TK-10 renal) [µM] | GI50 (CAKI-1 renal) [µM] | TGI (CAKI-1 renal) [µM] | GI50 (HCT-116 colon) [µM] | TGI (HCT-116 colon) [µM] | GI50 (K-562 leukemia) | TGI (K-562 leukemia) [µM] | GI50 (SF-539 CNS) [µM] | TGI (SF-539 CNS) [µM] | GI50 (MDA-MB-435) [µM] | TGI (MDA-MB-435) [µM] | GI50 (NCI-H522 lung) [µM] | TGI (NCI-H522 lung) [µM] | GI50 (MCF7 breast) [µM] | TGI (MCF7 breast) [µM]
O=C1NC(=O)C(c2ccccc2)=C1Nc1ccccc1 | > 25 | > 25 | > 25 | > 25 | > 25 | > 25 | > 25 | > 25 | > 25 | > 25 | > 25 µM | > 25 | > 25 | > 25 | > 25 | > 25 | > 25 | > 25 | > 25 | > 25
CN(CSc1ccc(Cl)cc1)c1ccc(CSc2ccc(Cl)cc2)cc1 | 12.2 | 34.2 | 3.16 | 16 | 11.5 | 31.7 | 2.32 | 8.64 | 3.06 | 11.9 | 6.64 µM | > 100 | 2.35 | 6.48 | 2.68 | 11.9 | 1.19 | 6.88 | 3.17 | 18.5
N#C/C(=C\c1ccc(F)cc1)n1nc2cccc(F)c2n1 | 3.89 | > 100 | 3.8 | > 100 | 7.01 | > 100 | 5.17 | > 100 | 3.57 | > 100 | 3.25 µM | > 100 | 3.14 | 11.1 | 1.89 | 4.62 | 3.24 | > 100 | 2.24 | > 100
COc1cc2c(cc1OCCCCn1c(-c3cccs3)nc3ccccc31)N=C[C@@H]1CCCN1C2=O | 1.97 | 14.6 | 3.36 | 11.1 | 2.09 | 6.74 | 0.949 | 6.71 | 1.75 |  | 15.5 µM | > 100 | 1.72 | 3.66 | 1.39 | 3.75 | 1.04 | 3.14 | 0.66 | 12.5
O=C1c2cccnc2C(=O)c2c1c(C(=O)OCCc1ccccn1)c1ccccn21 | 1.54 | 3.35 | 0.305 | 3.81 | 0.34 | 2.19 | 0.039 | 11.3 | 0.019 | 0.318 | 0.0612 µM | > 100 | 0.0334 | 0.432 | 0.0524 | 3.72 | 0.12 | 0.714 | < 0.01 | 0.147
CCCCN(CC)CCCCCCCCCCN1CCCc2cc(OC)ccc21 | 1.46 | 4.29 | 3.57 | 25.4 | 1.89 | 3.91 | 2.13 | 7.47 | 1.73 | 3.63 | 2.21 µM | 5.69 | 3.32 | 9.35 | 2.41 | 7.06 | 1.66 | 3.5 | 1.8 | 3.59
O=c1[nH]c2ccccc2n2cc3ccccc3c12 | 4.37 | > 100 | 4.74 | 69.4 | 20.6 | 36.9 | 17.6 | 35.5 | 2.12 | 12.3 |  |  | 5.11 | 22.2 | 16.3 | 31 | 13.7 | 32.3 | 10.5 | > 100
CCN(CC)CC(O)COc1c(Br)c(Br)c(Br)c2c1OC(C)(C)C2 (configuration not stated) | 1.82 | 3.91 | 3.04 | 9.64 | 4.19 | 14.9 | 6.8 | 23.8 | 3.85 | > 100 | 1.73 µM | 3.58 | 4.34 | 16.4 | 2.66 | 7.31 | 3.42 | 14.4 | 1.92 | 4.06
Cc1cc(=O)oc2cc(OC(=O)Nc3ccccc3)ccc12 |  | > 100 |  | > 100 |  | > 100 |  | > 100 |  | > 100 |  | > 100 |  | > 100 |  | > 100 |  | > 100 |  | > 100
CC1(C)OC2C(CO)OC(n3ccc(N)nc3=O)C2O1 (configuration not stated) |  |  |  | > 100 |  | > 100 |  | > 100 |  | > 100 |  | > 100 |  | > 100 |  | > 100 |  | > 100 |  | > 100
Cn1c(NCC(CN2CCCC2)OC(=O)c2ccccc2)cc(=O)n(C)c1=O (configuration not stated) | > 100 | > 100 | > 100 | > 100 | > 100 | > 100 | > 100 | > 100 | > 100 | > 100 | > 100 µM | > 100 | > 100 | > 100 | > 100 | > 100 | > 100 | > 100 | > 100 | > 100
O=C(c1cccs1)c1nc2cc(Cl)ccc2[n+]([O-])c1C(F)(F)F | 58.9 | > 100 | 51.8 | > 100 | > 100 | > 100 | > 100 | > 100 | 23.2 | > 100 | > 100 µM | > 100 | > 100 | > 100 | > 100 | > 100 | 29.6 | > 100 | 52.2 | > 100
O=C1C=CC(=O)N1c1ccc(I)cc1 |  | 45.1 |  | 41.2 |  | 30.3 |  | 34.3 |  | 30.9 |  | 53.5 |  | > 57.6 |  | 34.7 |  | 47.4 |  | 45.3
O=C(O)CNCCc1ccccc1 |  | > 100 |  | > 100 |  | > 100 |  | > 100 |  | > 100 |  | > 100 |  |  |  | > 100 |  | > 100 |  | > 100
O=C(Cc1ccc(Nc2ccnc(C(F)(F)F)c2)cc1)N/N=C/c1ccccc1O | 6.53 | 56 | 3.05 | > 60.9 | 4.43 | > 45.3 | 1.35 | 13 | 1.92 | > 39.6 | 2.74 µM | 20.1 | 2.44 | 12.2 | 3.67 | > 77.5 | 8.96 | 35.9 | 2.94 | 23.7
Cc1cc(C(O)(c2ccc(Nc3ccccc3)cc2)c2ccc(Nc3ccc(S(=O)(=O)O)cc3)cc2)ccc1N (configuration not stated) | 0.516 | 2.34 | 1.49 | 3.89 | 1.7 | 3.77 | 2.24 | 9.14 | 1.21 | 2.65 | 0.911 µM | > 100 | 1.64 | 3.32 | 1.28 | 2.69 | 1.26 | 4.44 | 0.478 | 2.67
O=[N+]([O-])/C=C/c1cc2ccc3ccccc3c2[nH]1 |  | 5.86 |  | 5.33 |  | 3.08 |  | 6.15 |  | 3.43 |  | 18.2 |  | 4.99 |  | 3.73 |  | 2.4 |  | 4.29
O=C(O)c1ccc(C(=O)O)c(C(=O)O)c1.[NH-]C1CCCCC1[NH-].[Pt+2] | 0.998 | 54.9 | 29.1 | 90.8 | 25.6 | 85.8 | 1.86 | 32.7 | 1.07 | 47.3 |  | 88.9 | 4.29 | 43.5 | 3.83 | 30.4 |  | 24.7 | 2.3 | 31.9
Oc1ccc(Cc2ccc(O)c(C3CC(c4ccc(Cl)cc4)=NN3)c2)cc1C1CC(c2ccc(Cl)cc2)=NN1 (configuration not stated) | 6.41 | > 44.6 | 3.2 | > 100 | 4.79 | > 100 | 3.19 | > 58.4 | 1.72 | 5.59 | 2.51 µM | > 100 | 4.69 | > 40.2 | 3.23 | 20.2 | 2.56 | 9.88 | 3.04 | > 100
Cn1c(=O)c2[nH]c(CCCc3ccc([N+](=O)[O-])cc3)nc2n(C)c1=O |  | > 100 |  | > 100 |  | > 100 |  | > 100 |  | > 100 |  | > 100 |  | > 100 |  | > 100 |  | > 100 |  | > 100
NC(=O)CCc1ccccc1Oc1nccc(-c2c(-c3ccc(F)cc3)ncn2C2CCNCC2)n1 | > 25 | > 25 | > 25 | > 25 | > 25 | > 25 | > 25 | > 25 | > 25 | > 25 | > 25 µM | > 25 | > 25 | > 25 | > 25 | > 25 | > 25 | > 25 | > 25 | > 25
C/C(=N/NC(=S)N1CC2CCC(CC2)C1)c1cnccn1 |  | 12.2 |  | 12.3 |  | 16.7 |  | 11.3 |  | 12.3 |  | 0.472 |  | 15.6 |  | 16.4 |  | 10.1 |  | 12.1
NCCCNc1nc2ccc(Cl)cc2c2c(=O)c3cc(F)ccc3sc12 | 2.12 | 4.94 | 6 | 21.2 | 3.08 | 11.1 | 6.39 | 20.2 | 1.72 | 3.12 | 1.74 µM | 3.73 | 3.79 | 14.3 | 1.93 | 4.2 | 2.26 | 5.67 | 1.68 | 3.42
N#Cc1c2ccccc2c2nnc3ccccc3n12 | 42.6 | > 100 | 12.6 | 72.1 | 31.7 | > 100 | 34.8 | > 100 | 28 | > 100 | 81.9 µM | > 100 |  |  | 33.5 | > 100 |  |  | 14.2 | 52.4
COc1cc(/C=C/C(=O)c2c(C)nc3ccccc3c2C)ccc1OCCCCOc1cc2c(cc1OC)C(=O)N1CCC[C@H]1C=N2 | 0.403 | 2.02 | 1.74 | 3.56 | 0.403 | 3.2 | 0.331 | 1.44 | 0.432 | 6.49 |  |  | 0.55 | 1.54 | 0.274 | 0.873 | 0.339 | 1.26 | 0.238 | 0.975
O=C(/C=C/c1nnc2n(Cc3ccccc3)c(=O)c3c4c(sc3n12)CCCC4)c1ccccc1 |  |  | > 100 | > 100 | 0.354 | 1.38 |  | > 100 | 0.31 | 1.12 | 0.902 µM and 0.199 µM | > 100 | > 100 | > 100 | 3.54 |  | 1.09 | > 100 |  | > 100
NS(=O)(=O)c1ccc(N=C2C(=O)Nc3ccccc32)cc1 |  | > 100 |  | > 100 |  | > 100 |  | > 100 |  | > 100 |  | > 100 |  |  |  | 72.7 |  | > 100 |  | > 100
COc1ncc(-c2ccc3nccc(C#CCN4CCN(S(C)(=O)=O)CC4)c3c2)cc1NS(=O)(=O)c1ccc(F)cc1F | 0.0237 | 2.1 | 0.146 | 12.4 |  |  | 0.173 | 13.4 | 0.178 | 1.87 | 0.665 µM | > 41.3 | 0.0398 | 0.272 | 0.0915 | 1.26 | 0.154 | 1.77 | < 0.01 | 1.79
FC(F)(F)c1ccc(-c2ncc(-c3ccc(C(F)(F)F)cc3)c(NCc3cc(C(F)(F)F)cc(C(F)(F)F)c3)n2)cc1 | 6.95 | > 100 |  |  | 7.51 | > 100 | 3.36 | 28 | 3.84 | > 100 | 3.97 µM | > 100 | 7.71 | > 100 | 4.23 | > 100 | 3.29 | 22.6 | 3.94 | > 100
